According to US20170157251A1, “Bi-Specific Monovalent Diabodies That are Capable of Binding CD19 and CD3, and Uses Thereof” (MacroGenics, Inc., priority 2015, published 2017):

Key:
Raji/GF cells = assay: Redirected killing of target tumor cells using human T cells, Raji/GF; format: cell-based; settings: HBL-2, Raji/GF, Jeko-1; E:T 10:1
[1] = tested on: cynomolgus monkey CD4+ and CD8+ T cells; assay: Cynomolgus monkey T cell activation (CD25, CD69) during redirected killing of Raji/GF cells; format: cell-based; settings: Raji/GF target cells
Text: (§1) The effect on T cells during DART-A-mediated redirected target cell (Raji/GF cells) lysis was characterized by evaluating expression of the T cell activation markers CD69 and CD25.

HBL-2 tumor cells [2] = assay: HBL-2 co-mix xenograft with activated human T cells; format: in vivo, NOD/SCID mice; settings: by Day 13
Text: (§2) In both studies, human T cells and tumor cells (HBL-2 or Raji) were combined at a ratio of 1:5 (1×10^6 and 5×10^6 cells, respectively) and injected SC into mice on Day 0.

Raji.luc lymphoma cells = assay: Disseminated Raji.luc model in human PBMC-reconstituted mice, early treatment; settings: 12 doses
[3] = tested on: CFSE-labeled human T cells; assay: Proliferation of CFSE-labeled human T cells co-cultured with HBL-2 target cells; format: cell-based; settings: 200 ng/mL, E:T 10:1, 72 hours
Protocol: The expansion of T cells during effector:target cell co-engagement by […] was also evaluated, given that proliferation concomitant with T cell activation has been previously reported. […] Proliferation of CFSE-labeled T cells was monitored by levels of CFSE dilution over time by FACS analysis (FIGS. 16A-16B).

human T cells = assay: Cytokine release by human T cells in the presence of Raji/GF target cells (ELISA); format: cell-based; settings: co-incubation with Raji/GF target cells
Raji tumor cells = assay: Raji co-mix xenograft with activated human T cells; format: in vivo, NOD/SCID mice; settings: end of the study (Day 28)
Text: as §2

Raji.luc cells = assay: Disseminated Raji.luc model in human PBMC-reconstituted mice, established tumor; settings: treatment from Study Day 15, 9 doses; DART-A 0.16 μg/kg to 0.5 mg/kg, Control DART 1 0.1 mg/kg
HBL-2 tumor cells [4] = assay: Established HBL-2 xenograft model with human PBMCs; format: in vivo, NSG B2m−/− mice
Text: Mice were implanted with HBL-2 tumor cells (5×10^6 cells) intradermally (ID) on Day 0 followed by intraperitoneal (IP) injection of PBMCs (5×10^7 cells) on Day 4.
However, prior to the third (Study Day 24) and fourth (Study Day 28) doses, the tumor volumes were 1469±162 and 848±74 mm^3, respectively, representing a 36% and 63%, respectively, decrease in tumor volume with respect to the peak volume recorded on Study Day 21 (FIG. 19B). The tumors continued to decrease in size to the extent that on Day 42, the average tumor volume was 248±52 mm^3, an 89% decrease in the tumor volume (FIG. 19B).

CD20+ B cells [5] = assay: Autologous B cell depletion in cynomolgus monkey PBMCs; format: cell-based
Text: (§3) Potential differences in CD19 expression levels between human and cynomolgus monkey B cells may be another variable factor contributing to the apparent difference in potency.

[6] = tested on: CLL malignant B cells (CD20+/CD5+); assay: Autologous depletion of malignant B cells in CLL primary patient PBMCs; format: cell-based, human
Protocol: Due to the limited patient sample availability, only 2 concentrations (50 ng/mL and 200 ng/mL) were tested. The percentages of CLL malignant B cells (CD19+/CD5+ or CD20+/CD5+) and T cells (CD19−/CD5+ or CD4+ and CD8+) were measured by flow cytometry prior to treatment and following treatment for 3 and 6 days.

[7] = tested on: human T cells with JIMT-1 cells; assay: Human T cell activation in the presence of CD19-negative JIMT-1 cells; format: cell-based
CD20+ B cells [8] = assay: Autologous B cell depletion in human PBMCs; format: cell-based
Text: as §3

[9] = Human FcRn transgenic mouse pharmacokinetic study; format: in vivo; settings: human FcRn transgenic mice
Protocol: Three human mAbs were also evaluated in same test system for comparison and had terminal half-lives ranging from 58.7 to 102.7 hours.

[10] = tested on: human CD4+ and CD8+ T cells; assay: Human T cell activation (CD25, CD69) during redirected killing of Raji/GF cells; format: cell-based; settings: Raji/GF target cells
Text: as §1

[11] = tested on: human CD8+ and CD4+ T cells; assay: Intracellular granzyme B and perforin in T cells in CTL assay; format: cell-based; settings: 24 hours, Raji/GF target cells, E:T 10:1
Text: Of note, the upregulation of granzyme B (FIG. 15A) and perforin (FIG. 15B) was higher in CD8+ T cells compared with CD4+ T cells, consistent with the expected higher CTL potency of CD8+ T cells.

In the case of “Control DART 1: control DART capable of binding to fluorescein and CD3 [reference compound]”, the “T cell redirected killing of target cells” value (Raji/GF cells) is reported as “did not mediate T cell redirected killing of target cells”, the “T cell activation markers CD25 and CD69” value [1] is reported as “did not mediate induction of T cell activation markers” and the average tumor volume (HBL-2 tumor cells [2]) is reported as “approximately 1000 mm^3”. The “efficacy in dose-range finding study” value (Raji.luc lymphoma cells; 0.16 μg/kg to 0.5 mg/kg) was “rapid progression of Raji.luc tumor growth”, the “Study Day by which all mice died or were humanely sacrificed” value (Raji.luc lymphoma cells; 0.5 mg/kg IV) was ≤ 53 Study Day and the “cells proliferating (CFSE dilution)” value [3] was “no proliferation of CFSE-labeled T cells was observed”. The cytokine production (human T cells) was “did not result in any detectable cytokine production”, the average tumor volume (Raji tumor cells) was 2968.2±200.0 mm3 and the “tumor burden / tumor progression, dose-range finding” value (Raji.luc cells) was “slight delay of tumor progression”. For the same substance, the average tumor volume (HBL-2 tumor cells [4]; Day 21 (2nd dose), treatment from Day 17, DART-A 0.5 mg/kg IV) was 1185.6±138.7 mm^3, the average tumor volume (HBL-2 tumor cells [4]; Day 24 (3rd dose), treatment from Day 17) was 2623.7±351.5 mm^3 and the “CD20+ B cell depletion” value (CD20+ B cells [5]) was “no B cell depletion was observed”. For the same substance, the “CD4+” value ([6]; Day 3, 50 ng/mL) was 3.08%, the “CD8+” value ([6]; Day 3, 50 ng/mL) was 1.81% and the “CD20+/CD5+” value ([6]; Day 3, 50 ng/mL, E:T = 1:23) was 73.5%. For the same substance, the “CD4+” value ([6]; Day 3, 200 ng/mL) was 3.23%, the “CD8+” value ([6]; Day 3, 200 ng/mL) was 1.62% and the “CD20+/CD5+” value ([6]; Day 3, 200 ng/mL) was 72.9%. The “CD4+” value ([6]; Day 6, 50 ng/mL) was 3.54%, the “CD8+” value ([6]; Day 6, 50 ng/mL) was 2.26% and the “CD20+/CD5+” value ([6]; Day 6, 50 ng/mL) was 74.9%. The “CD25+/CD4+” value ([6]; Day 6, 50 ng/mL) was 1.4%, the “CD25+/CD8+” value ([6]; Day 6, 50 ng/mL) was 20.6% and the “CD4+” value ([6]; Day 6, 200 ng/mL) was 2.79%. The “CD8+” value ([6]; Day 6, 200 ng/mL) was 1.82%, the “CD20+/CD5+” value ([6]; Day 6, 200 ng/mL) was 73.4% and the “CD25+/CD4+” value ([6]; Day 6, 200 ng/mL) was 1.4%. The “CD25+/CD8+” value ([6]; Day 6, 200 ng/mL) was 14.3%, the “B cell killing or upregulation of CD25” value ([6]; through Day 6) was “no B cell killing or upregulation of CD25 was observed” and the T cell activation [7] was “fail to mediate human T cell activation”. The “CD20+ B cell depletion” value (CD20+ B cells [8]) was “no B cell depletion was observed”, the terminal half-life [9] was 92.1 h and the “T cell activation markers CD25 and CD69” value [10] was “did not mediate induction of T cell activation markers”. For the same substance, the “granzyme B and perforin levels in CD8+ and CD4+ T cells” value [11] was “no upregulation of granzyme B or perforin was observed”.
